Data on 32 molecules can be found in patent US4386090A, “Nitrogen containing 2,3-dihydro naphthalenes, compositions and use” (Delalande S.A., priority 1980, dated 1983).

By LD50 is commonly meant the dose at which mortality reaches 50%. Low readings indicate greater toxicity, high ones lower toxicity.

Data set [1] is described as follows: acute toxicity (LD 50). To be noted: in vivo, ip. From the text: To illustrate the invention, there are shown in table IV below, the results obtained in these two tests and the acute toxicity (LD 50) of some compounds of formula (I).
Data set [2] has as its system mice. Nature of the data set: analgesic activity, phenylbenzoquinone test (E. SIEGMUND). It counts as in vivo. To be noted: Mus musculus, ip, read-out: ED 50 analgesic property. The source says:
Soc. Exp. Biol. and Med. 95, 729, (1957).

Data set [3] relates to mice. Nature of the data set: antidepressive activity, antagonism to ptosis after intravenous injection of reserpine. It is filed as in vivo. To be noted: Mus musculus, ip, 1 h, i.p., ptosis observed an hour after i.v. reserpine 2 mg/kg, read-out: ED 50 antidepressive property. The source says:
GOURET and J. THOMAS in J. Pharmacol. (Paris) (1973), 4, 401.

Structures can show the parent of a compound that is named as a salt.

Molecule `CN(C)CCC1Cc2ccccc2C(c2ccccc2F)=N1` (stereo not drawn) [compound 22] came in with a median lethal dose (LD50) in data set [1] of 70 mg/kg. Besides, the ED50 was found to be 6.2 mg/kg in data set [2] and 0.6 mg/kg in data set [3].
In data set [1], `COc1ccc2c(c1)C(c1ccccc1)=NC(CN1CCN(C)CC1)C2` (stereo not drawn) [compound 100] gave a median lethal dose (LD50) of 140 mg/kg. In addition, the ED50 worked out at 30 mg/kg in data set [2] and 9 mg/kg in data set [3].
For `Cc1ccccc1C1=NC(CCN(C)C)Cc2ccccc21` (stereo not drawn) [compound 31], in that order: 50 mg/kg, 5.6 mg/kg and 1.8 mg/kg.
For `CN(C)CC1COc2ccccc2C(c2ccccc2Cl)=N1` (stereo not drawn) [compound 42], in that order: 70 mg/kg, 3.5 mg/kg and 7 mg/kg.
In the case of `CN(C)CCC1Cc2ccccc2C(c2ccc(Cl)cc2)=N1` (stereo not drawn) [compound 27], in data set [1], the 50% lethal dose (LD50) came out at 70 mg/kg. The figures for the ED50 in data set [2] and in data set [3] were 11 mg/kg and 4.4 mg/kg, respectively.
Taken in the same sequence, the figures for `Cc1cccc(C2=NC(CCN(C)C)Cc3ccccc32)c1` (stereo not drawn) [compound 32] were 67 mg/kg, 6.6 mg/kg and 6.6 mg/kg.
Taken in the same sequence, the figures for `CN(C)CCC1Cc2ccccc2C(C2CCCCC2)=N1` (stereo not drawn) [compound 37] were 82 mg/kg, 10 mg/kg and 10 mg/kg.
Molecule `CN(C)CCC1COc2ccccc2C(c2ccccc2)=N1` (stereo not drawn) [compound 45] had an LD50 in data set [1] of 160 mg/kg. Besides, the ED50 worked out at 16.5 mg/kg in data set [2] and 12 mg/kg in data set [3].
Taken in the same sequence, the figures for `CN(C)CCC1Cc2ccccc2C(c2ccc(F)cc2)=N1` (stereo not drawn) [compound 24] were 61 mg/kg, 8.4 mg/kg and 2.1 mg/kg.
In data set [1], `CN(C)CCC1C=C(c2ccccc2)c2ccccc2C1` (stereo not drawn) [Code Number 2] had a median lethal dose (LD50) of 110 mg/kg. Further, the ED50 in data set [2] came to 7.3 mg/kg; in data set [3], 1 mg/kg.
Regarding `CN(C)CC1COc2ccccc2C(c2ccccc2F)=N1` (stereo not drawn) [compound 41], the median lethal dose (LD50) in data set [1] came to 62 mg/kg. Also, the ED50 in data set [2] came to 7.2 mg/kg; in data set [3] it was 3.5 mg/kg.
Molecule `NCCC1Cc2ccccc2C(c2ccccc2F)=N1` (stereo not drawn) [compound 20] gave a 50% lethal dose (LD50) in data set [1] of 62 mg/kg. For the same molecule, the ED50 in data set [2] came to 3.7 mg/kg; in data set [3] it was 1.8 mg/kg.
As for `CN(C)CCC1Cc2ccccc2C(c2cccc(Cl)c2)=N1` (stereo not drawn) [compound 26], the LD50 in data set [1] amounted to 65 mg/kg. The ED50 in data set [2] worked out at 7.6 mg/kg; in data set [3] it was 5.4 mg/kg.
For `COc1cccc(C2=NC(CCN(C)C)Cc3ccccc32)c1` (stereo not drawn) [compound 29], in that order: 78 mg/kg, 10 mg/kg and 6.8 mg/kg.
`Cc1ccc2c(c1)C(c1ccccc1)=NC(CN(C)C)C2` (stereo not drawn) [compound 12] came in with an LD50 in data set [1] of 50 mg/kg. Besides, the results for the ED50 in data set [2] and in data set [3] were 5 mg/kg and 15 mg/kg, respectively.
In data set [1], `NCCC1Cc2ccccc2C(c2ccccc2)=N1` (stereo not drawn) [compound 15] gave an LD50 of 67 mg/kg. The ED50 came out at 10 mg/kg in data set [2] and 0.9 mg/kg in data set [3].
For `CN(C)CCC1Cc2ccccc2C(c2ccc([N+](=O)[O-])cc2)=N1` (stereo not drawn) [compound 35], in that order: 80 mg/kg, 8 mg/kg and 8 mg/kg.
Taken in the same sequence, the figures for `CN(C)CCC1Cc2ccccc2C(c2cccc(F)c2)=N1` (stereo not drawn) [compound 23] were 55 mg/kg, 2 mg/kg and 2 mg/kg.
Taken in the same sequence, the figures for `CN(C)CC1C=C(c2ccccc2)c2ccccc2C1` (stereo not drawn) [Code Number 1, 3-Dimethylaminomethyl 1-phenyl 3,4-dihydro naphthalene, oxalate] were 62 mg/kg, 6 mg/kg and 10 mg/kg.
In data set [1], `CN(C)CCC1Cc2ccc(Cl)cc2C(c2ccccc2)=N1` (stereo not drawn) [compound 19] yielded an LD50 of 95 mg/kg. The ED50 is 4 mg/kg in data set [2] and 3.8 mg/kg in data set [3].
Consider `CN(C)CCC1Cc2ccccc2C(c2ccccc2Cl)=N1` (stereo not drawn) [compound 25], for which the LD50 in data set [1] turned out to be 60 mg/kg. Besides, the ED50 in data set [2] was 3.8 mg/kg; in data set [3] it was 3.7 mg/kg.
Taken in the same sequence, the figures for `Cc1ccc(C2=NC(CCN(C)C)Cc3ccccc32)cc1` (stereo not drawn) [compound 33] were 70 mg/kg, 8.8 mg/kg and 2.7 mg/kg.
Regarding `CN(C)CCC1Cc2ccccc2C(c2ccccn2)=N1` (stereo not drawn) [compound 86], the LD50 in data set [1] was found to be 94 mg/kg. Also, the ED50 stood at 10 mg/kg in data set [2] and 4 mg/kg in data set [3].
Taken in the same sequence, the figures for `CN1CCN(CC2Cc3ccccc3C(c3ccccc3)=N2)CC1` (stereo not drawn) [compound 7] were 170 mg/kg, 6.2 mg/kg and 10 mg/kg.
Regarding `CN(C)CCC1Cc2ccccc2C(c2ccccc2)=N1` (stereo not drawn) [compound 17], in data set [1], the median lethal dose (LD50) came out at 65 mg/kg. Further, the ED50 in data set [2] was determined as 6 mg/kg; in data set [3], 1.5 mg/kg.
For `CN(C)CCC1Cc2ccccc2C(c2cccnc2)=N1` (stereo not drawn) [compound 108], in that order: 90 mg/kg, 7.6 mg/kg and 12 mg/kg.
For `CN(C)CC1COc2ccccc2C(c2cccc(Cl)c2)=N1` (stereo not drawn) [compound 43], in that order: 65 mg/kg, 10 mg/kg and 3 mg/kg.
In data set [1], `CN(C)CCCC1Cc2ccccc2C(c2ccccc2F)=N1` (stereo not drawn) [compound 39] came in with a 50% lethal dose (LD50) of 100 mg/kg. In addition, the ED50 in data set [2] is 1.9 mg/kg; in data set [3] it was 0.7 mg/kg.
As to `CN(C)CC1Cc2ccc(F)cc2C(c2ccccc2)=N1` (stereo not drawn) [compound 10], the LD50 in data set [1] was determined as 60 mg/kg. Also, the results for the ED50 in data set [2] and in data set [3] were 4 mg/kg and 2.8 mg/kg, respectively.
Taken in the same sequence, the figures for `CN(C)CC1Cc2ccc(Cl)cc2C(c2ccccc2)=N1` (stereo not drawn) [Code Number 11] were 37 mg/kg, 3 mg/kg and 0.8 mg/kg.
For `CN(C)CC1COc2ccccc2C(c2ccc(Cl)cc2)=N1` (stereo not drawn) [compound 44], in that order: 130 mg/kg, 9.8 mg/kg and 10 mg/kg.
For `CN(C)CC1Cc2ccccc2C(c2ccccc2)=N1` (stereo not drawn) [compound 6], in that order: 41 mg/kg, 5 mg/kg and 3.5 mg/kg.
